Like-named read-outs stand apart in the source and are kept apart here.
Assays:
[1] = pharmacokinetics after single oral (gavage) and intravenous dose in 0.9% saline (Example 2); set-up: species or system cynomolgus monkeys; details: male, cynomolgus monkey, in vivo; for Vd: Vdss
Method: Four male cynomolgus monkeys were used in the study. […] The dosing volume was 10 mL/kg.
By using 0.2 mL of monkey plasma sample, the assay limit of quantitation (LOQ) was 100 ng/mL and the curve range was between 100 and 6400 ng/mL.
AUC0-4 was calculated by AUC0-t+Ct/λ, where AUC0-t was the AUC from time 0 to t, the last quantifiable time point and Ct was the last quantifiable concentration. […] Systemic clearance (CLT) after the iv dose was calculated using the formula of Dose/AUC0-4.

[2] = cell monolayer permeability studies; format: in vitro ADME; details: 1 mM in ethanol and buffer, pH 6 to 6.4
solubility in water = format: physicochemical; details: over the entire pH range of 1 to 14
[3] = systemic clearance in dogs; details: dog, in vivo, after a single 5 mg/kg dose, read-out: systemic clearance (ClT) in dogs (converted)
[4] = oral bioavailability of encapsulated microparticulate (100 mg) enteric coated formulation (Example 3); set-up: species or system cynomolgus monkeys; details: cynomolgus monkey, in vivo
Method: Each 100 mg capsule contained 478.5 mg enteric coated granules. […] The monkeys were housed in Bioresources vivarium with free access to water and food. The four monkeys received the oral formulation described above (1×100 mg multi-particulate capsule). The formulation was administered with 10 mL water. All monkeys were fasted overnight prior to dosing (with free access to water) and were fed 4 hours after dose administration. […] Approximately 3 mL of blood were drawn into Vacutainer® tubes containing sodium heparin as the anticoagulant. Plasma was separated in a refrigerated centrifuge and stored at -70° C. Plasma samples were delivered to the assay site packed on dry ice.

[5] = iv, 5 mg/kg, Plasma Concentrations
[6] = po, 15 mg/kg, Plasma Concentrations
[7] = po, 15 mg/kg, Plasma Concentrations, Mean
[8] = cynomolgus, iv, 5 mg/kg, Plasma Concentrations
[9] = cynomolgus, iv, 5 mg/kg, Plasma Concentrations, Mean

CN(C)c1cc(NC(=O)CNC(C)(C)C)c(O)c2c1C[C@H]1C[C@H]3[C@H](N(C)C)C(O)=C(C(N)=O)C(=O)[C@@]3(O)C(O)=C1C2=O [Tigecycline]
AUC ([1]; 15 mg/kg): 18300 ng·h/mL
Cmax ([1]; 15 mg/kg, Cmax): 15100 ng/mL
half-life ([1]; 15 mg/kg, t1/2): 14.1 h
AUC(0-t) ([1]; iv, 5 mg/kg): 18200 ng·h/mL
ClT, Mean ([1]; iv, 5 mg/kg): 4.67 mL/min/kg
MRTiv, Mean ([1]; iv, 5 mg/kg): 12.8 h
Plasma Concentrations ([1]; iv, 5 mg/kg, 0 hr): <100 ng/mL
concentration at 0 hr [1, 5]: < 100 ng/mL
concentration at 0.5 hr [1, 5]: 3340 ng/mL
concentration at 1 hr [1, 5]: 1660 ng/mL
concentration at 12 hr [1, 5]: 265 ng/mL
concentration at 24 hr [1, 5]: 155 ng/mL
concentration at 32 hr [1, 5]: < 100 ng/mL
concentration at 48 hr [1, 5]: < 100 ng/mL
Vd ([1]; iv, 5 mg/kg, Mean): 3.47 L/kg
half-life ([1]; iv, 5 mg/kg, t1/2): 11.4 to 19.1 h
half-life ([1]; iv, 5 mg/kg, t1/2, Mean): 14.1 h
AUC ([1]; po, 15 mg/kg): 163 ng·h/mL
detected in samples up to (time post-dose) ([1]; po, 15 mg/kg): up to 2 hours
Plasma Concentrations ([1]; po, 15 mg/kg, 0 h): <100 ng/mL
Plasma Concentrations ([1]; po, 15 mg/kg, 4 hr): <100 ng/mL
Plasma Concentrations ([1]; po, 15 mg/kg, 6 hr): <100 ng/mL
Plasma Concentrations ([1]; po, 15 mg/kg, 8 hr): <100 ng/mL
Plasma Concentrations ([1]; po, 15 mg/kg, 12 hr): <100 ng/mL
Plasma Concentrations ([1]; po, 15 mg/kg, 24 h): <100 ng/mL
Plasma Concentrations ([1]; po, 15 mg/kg, 32 h): <100 ng/mL
Plasma Concentrations ([1]; po, 15 mg/kg, 48 h): <100 ng/mL
AUC(0-t) ([1]; po, 15 mg/kg, AUC0-t, Mean): 163 ng·h/mL
Cmax ([1]; po, 15 mg/kg, Cmax): 163 ng/mL
concentration at 0 h [1, 6]: < 100 ng/mL
concentration at 0.5 h [1, 6]: < 100 ng/mL
concentration at 1 hr [1, 6]: 114 ng/mL
concentration at 2 hr [1, 6]: 131 ng/mL
concentration at 4 hr [1, 6]: < 100 ng/mL
concentration at 6 hr [1, 6]: < 100 ng/mL
concentration at 8 hr [1, 6]: < 100 ng/mL
concentration at 12 hr [1, 6]: < 100 ng/mL
concentration at 24 h [1, 6]: < 100 ng/mL
concentration at 32 h [1, 6]: < 100 ng/mL
concentration at 48 h [1, 6]: < 100 ng/mL
concentration at 0 h [1, 7]: 0 ng/mL
concentration at 0.5 h [1, 7]: 55.5 ng/mL
concentration at 1 h [1, 7]: 131 ng/mL
concentration at 2 h [1, 7]: 118 ng/mL
concentration at 4 h [1, 7]: 0 ng/mL
concentration at 6 h [1, 7]: 0 ng/mL
concentration at 8 h [1, 7]: 0 ng/mL
concentration at 12 h [1, 7]: 0 ng/mL
concentration at 24 h [1, 7]: 0 ng/mL
concentration at 32 h [1, 7]: 0 ng/mL
concentration at 48 h [1, 7]: 0 ng/mL
Tmax ([1]; po, 15 mg/kg, tmax): 1.8 h
Tmax ([1]; po, 15 mg/kg, tmax, Mean): 1.8 h
concentration at 2 hr ([1]; monkeys, single oral (gavage) dose of 15 mg/kg, 2 hr, individual animals, read-out: Plasma Concentrations): 191 ng/mL
Cmax ([1]; cynomolgus, iv, 5 mg/kg, Cmax, Mean): 15100 ng/mL
AUC(0-t) ([1]; cynomolgus, iv, 5 mg/kg, Mean): 18300 ± 3030 ng·h/mL
concentration at 2 hr [1, 8]: 1010 ng/mL
concentration at 4 hr [1, 8]: 588 ng/mL
concentration at 6 hr [1, 8]: 431 ng/mL
concentration at 8 hr [1, 8]: 372 ng/mL
concentration at 0 hr [1, 9]: 0 ng/mL
concentration at 0.083 hr [1, 9]: 15100 ng/mL
concentration at 0.5 hr [1, 9]: 2250 ng/mL
concentration at 1 hr [1, 9]: 1400 ng/mL
concentration at 2 hr [1, 9]: 1090 ng/mL
concentration at 4 hr [1, 9]: 697 ng/mL
concentration at 6 hr [1, 9]: 499 ng/mL
concentration at 8 hr [1, 9]: 392 ng/mL
concentration at 12 hr [1, 9]: 264 ng/mL
concentration at 24 hr [1, 9]: 162 ng/mL
concentration at 32 hr [1, 9]: 31.8 ng/mL
concentration at 48 hr [1, 9]: 27 ng/mL
Vd ([1]; cynomolgus, iv, 5 mg/kg, Mean): 3.47 ± 1.09 L/kg
half-life ([1]; cynomolgus, iv, 5 mg/kg, t1/2): 12.8 h
half-life ([1]; cynomolgus, iv, 5 mg/kg, t1/2, Mean): 14.1 ± 3.4 h
Tmax ([1]; cynomolgus, po, 15 mg/kg): 1.0 h
Cmax ([1]; cynomolgus, po, 15 mg/kg, Cmax): 178 ng/mL
Cmax ([1]; cynomolgus, po, 15 mg/kg, Cmax, Mean): 163 ± 27.1 ng/mL
Tmax ([1]; cynomolgus, po, 15 mg/kg, tmax): 1 to 2 h
Cmax ([1]; cynomolgus, monkeys, single oral (gavage) dose of 15 mg/kg, individual animals, read-out: Cmax): 191 ng/mL
Papp at 1 mM [2]: 0.04 ×10⁻⁶ cm/s
solubility (solubility in water): > 295 mg/mL
clearance [3]: ~4.33 mL/min/kg
concentration at 1 hr ([4]; fasted male cynomolgus monkeys, single oral dose 100 mg encapsulated microparticulate capsule, 1 hr, individual animals, read-out: Plasma Concentrations): 113 ng/mL
concentration at 3 hr ([4]; fasted male cynomolgus monkeys, single oral dose 100 mg encapsulated microparticulate capsule, 3 hr, individual animals, read-out: Plasma Concentrations): 174 ng/mL
concentration at 4 hr ([4]; fasted male cynomolgus monkeys, single oral dose 100 mg encapsulated microparticulate capsule, 4 hr, individual animals, read-out: Plasma Concentrations): 113 ng/mL
AUC/Dose, Mean ([4]; male): 174
Cmax/Dose, Mean ([4]; male): 14.0
AUC/Dose ([4]; male, po, 16 mg/kg): 174
Cmax/Dose ([4]; male, po, 16 mg/kg): 14.0
AUC ([4]; male, po, 16 mg/kg, AUC0/t or 0-∞): 2830 ng·h/mL
bioavailability ([4]; male, po, 16 mg/kg, Bioavailability): 4.8%
Cmax ([4]; male, po, 16 mg/kg): 225 ng/mL
bioavailability ([4]; male, po, 16 mg/kg, absolute bioavailability of tigecycline in the blood): 5%
half-life ([4]; male, po, 16 mg/kg, t1/2): 12.1 h
Tmax ([4]; male, po, 16 mg/kg, tmax): 2.25 h
Tmax ([4]; male, po, 100 mg): 3.0 h
AUC(0-inf) ([4]; male, po, 100 mg, AUC0-∞, Mean): 2830 ng·h/mL
AUC ([4]; male, po, 100 mg, AUC0/24, Mean): 2130 ng·h/mL
Cmax ([4]; male, po, 100 mg, Mean): 225 ng/mL
half-life ([4]; male, po, 100 mg, T1/2): 9.48 h
half-life ([4]; male, po, 100 mg, T1/2, Mean): 12.1 h
Tmax ([4]; male, po, 100 mg, Tmax): 2 h
Tmax ([4]; male, po, 100 mg, Tmax, Mean): 2.25 h

Reference: US20070243244A1 (priority 2005, published 2007)
